Reference: ChEMBL document CHEMBL4627246, “Pyroglutamide-Based P2X7 Receptor Antagonists Targeting Inflammatory Bowel Disease” (J Med Chem, 2020)

These compounds were tested on A549 (assay: Cytotoxicity against human A549/ATCC cells assessed as effect on cell growth at 10 uM incubated for 48 hrs by sulforhodamine B assay). Details: a549, 48 h.
Format: cell-based

SMILES	Activity
O=C(NCc1ccc(Cl)cc1Cl)[C@@H]1CCC(=O)N1c1nccs1	Non-Toxic
Cc1ccc(NC(=O)[C@@H]2CCC(=O)N2c2ccccc2)cc1	Non-Toxic
CN1C(=O)CC[C@H]1C(=O)NCc1cc(C(F)(F)F)ccc1Cl	Non-Toxic
O=C(NCc1ccc(Cl)cc1Cl)[C@@H]1CCC(=O)N1Cc1ccc(Cl)cc1	Non-Toxic

Each compound was assayed on SR (assay: Cytotoxicity against human SR cells assessed as effect on cell growth at 10 uM incubated for 48 hrs by sulforhodamine B assay). Details: not given.
Format: cell-based

SMILES	Activity
O=C(NCc1ccc(Cl)cc1Cl)[C@@H]1CCC(=O)N1c1nccs1	Non-Toxic
Cc1ccc(NC(=O)[C@@H]2CCC(=O)N2c2ccccc2)cc1	Non-Toxic
CN1C(=O)CC[C@H]1C(=O)NCc1cc(C(F)(F)F)ccc1Cl	Non-Toxic
O=C(NCc1ccc(Cl)cc1Cl)[C@@H]1CCC(=O)N1Cc1ccc(Cl)cc1	Non-Toxic

The compounds below were run on RPMI-8226 (assay: Cytotoxicity against human RPMI8226 cells assessed as effect on cell growth at 10 uM incubated for 48 hrs by sulforhodamine B assay). Details: rpmi-8226, 48 h.
Format: cell-based

SMILES	Activity
O=C(NCc1ccc(Cl)cc1Cl)[C@@H]1CCC(=O)N1c1nccs1	Non-Toxic
Cc1ccc(NC(=O)[C@@H]2CCC(=O)N2c2ccccc2)cc1	Non-Toxic
CN1C(=O)CC[C@H]1C(=O)NCc1cc(C(F)(F)F)ccc1Cl	Non-Toxic
O=C(NCc1ccc(Cl)cc1Cl)[C@@H]1CCC(=O)N1Cc1ccc(Cl)cc1	Non-Toxic

The compounds below were run on MOLT-4 (assay: Cytotoxicity against human MOLT4 cells assessed as effect on cell growth at 10 uM incubated for 48 hrs by sulforhodamine B assay). Details: molt-4, 48 h.
Format: cell-based

SMILES	Activity
O=C(NCc1ccc(Cl)cc1Cl)[C@@H]1CCC(=O)N1c1nccs1	Non-Toxic
Cc1ccc(NC(=O)[C@@H]2CCC(=O)N2c2ccccc2)cc1	Non-Toxic
CN1C(=O)CC[C@H]1C(=O)NCc1cc(C(F)(F)F)ccc1Cl	Non-Toxic
O=C(NCc1ccc(Cl)cc1Cl)[C@@H]1CCC(=O)N1Cc1ccc(Cl)cc1	Non-Toxic

The compounds below were run on EKVX (assay: Cytotoxicity against human EKVX cells assessed as effect on cell growth at 10 uM incubated for 48 hrs by sulforhodamine B assay). Details: not given.
Format: cell-based

SMILES	Activity
O=C(NCc1ccc(Cl)cc1Cl)[C@@H]1CCC(=O)N1c1nccs1	Non-Toxic
Cc1ccc(NC(=O)[C@@H]2CCC(=O)N2c2ccccc2)cc1	Non-Toxic
CN1C(=O)CC[C@H]1C(=O)NCc1cc(C(F)(F)F)ccc1Cl	Non-Toxic
O=C(NCc1ccc(Cl)cc1Cl)[C@@H]1CCC(=O)N1Cc1ccc(Cl)cc1	Non-Toxic

Each compound was assayed on HL-60(TB) (assay: Cytotoxicity against human HL-60(TB) cells assessed as effect on cell growth at 10 uM incubated for 48 hrs by sulforhodamine B assay). Details: not given.
Format: cell-based

SMILES	Activity
O=C(NCc1ccc(Cl)cc1Cl)[C@@H]1CCC(=O)N1c1nccs1	Non-Toxic
Cc1ccc(NC(=O)[C@@H]2CCC(=O)N2c2ccccc2)cc1	Non-Toxic
CN1C(=O)CC[C@H]1C(=O)NCc1cc(C(F)(F)F)ccc1Cl	Non-Toxic
O=C(NCc1ccc(Cl)cc1Cl)[C@@H]1CCC(=O)N1Cc1ccc(Cl)cc1	Non-Toxic

Each compound was assayed on NCI-H460 (assay: Cytotoxicity against human NCI-H460 cells assessed as effect on cell growth at 10 uM incubated for 48 hrs by sulforhodamine B assay). Details: nci-h460, 48 h.
Format: cell-based

SMILES	Activity
O=C(NCc1ccc(Cl)cc1Cl)[C@@H]1CCC(=O)N1c1nccs1	Non-Toxic
Cc1ccc(NC(=O)[C@@H]2CCC(=O)N2c2ccccc2)cc1	Non-Toxic
CN1C(=O)CC[C@H]1C(=O)NCc1cc(C(F)(F)F)ccc1Cl	Non-Toxic
O=C(NCc1ccc(Cl)cc1Cl)[C@@H]1CCC(=O)N1Cc1ccc(Cl)cc1	Non-Toxic

These compounds were tested on HCT-15 (assay: Cytotoxicity against human HCT15 cells assessed as effect on cell growth at 10 uM incubated for 48 hrs by sulforhodamine B assay). Details: hct-15, 48 h.
Format: cell-based

SMILES	Activity
O=C(NCc1ccc(Cl)cc1Cl)[C@@H]1CCC(=O)N1c1nccs1	Non-Toxic
Cc1ccc(NC(=O)[C@@H]2CCC(=O)N2c2ccccc2)cc1	Non-Toxic
CN1C(=O)CC[C@H]1C(=O)NCc1cc(C(F)(F)F)ccc1Cl	Non-Toxic
O=C(NCc1ccc(Cl)cc1Cl)[C@@H]1CCC(=O)N1Cc1ccc(Cl)cc1	Non-Toxic

The compounds below were run on KM12 (assay: Cytotoxicity against human KM12 cells assessed as effect on cell growth at 10 uM incubated for 48 hrs by sulforhodamine B assay). Details: km12, 48 h.
Format: cell-based

SMILES	Activity
O=C(NCc1ccc(Cl)cc1Cl)[C@@H]1CCC(=O)N1c1nccs1	Non-Toxic
Cc1ccc(NC(=O)[C@@H]2CCC(=O)N2c2ccccc2)cc1	Non-Toxic
CN1C(=O)CC[C@H]1C(=O)NCc1cc(C(F)(F)F)ccc1Cl	Non-Toxic
O=C(NCc1ccc(Cl)cc1Cl)[C@@H]1CCC(=O)N1Cc1ccc(Cl)cc1	Non-Toxic

Each compound was assayed on SW-620 (assay: Cytotoxicity against human SW620 cells assessed as effect on cell growth at 10 uM incubated for 48 hrs by sulforhodamine B assay). Details: sw-620, 48 h.
Format: cell-based

SMILES	Activity
O=C(NCc1ccc(Cl)cc1Cl)[C@@H]1CCC(=O)N1c1nccs1	Non-Toxic
Cc1ccc(NC(=O)[C@@H]2CCC(=O)N2c2ccccc2)cc1	Non-Toxic
CN1C(=O)CC[C@H]1C(=O)NCc1cc(C(F)(F)F)ccc1Cl	Non-Toxic
O=C(NCc1ccc(Cl)cc1Cl)[C@@H]1CCC(=O)N1Cc1ccc(Cl)cc1	Non-Toxic

Each compound was assayed on SF-295 (assay: Cytotoxicity against human SF295 cells assessed as effect on cell growth at 10 uM incubated for 48 hrs by sulforhodamine B assay). Details: sf-295, 48 h.
Format: cell-based

SMILES	Activity
O=C(NCc1ccc(Cl)cc1Cl)[C@@H]1CCC(=O)N1c1nccs1	Non-Toxic
Cc1ccc(NC(=O)[C@@H]2CCC(=O)N2c2ccccc2)cc1	Non-Toxic
CN1C(=O)CC[C@H]1C(=O)NCc1cc(C(F)(F)F)ccc1Cl	Non-Toxic
O=C(NCc1ccc(Cl)cc1Cl)[C@@H]1CCC(=O)N1Cc1ccc(Cl)cc1	Non-Toxic

Each compound was assayed on SF-539 (assay: Cytotoxicity against human SF539 cells assessed as effect on cell growth at 10 uM incubated for 48 hrs by sulforhodamine B assay). Details: sf-539, 48 h.
Format: cell-based

SMILES	Activity
O=C(NCc1ccc(Cl)cc1Cl)[C@@H]1CCC(=O)N1c1nccs1	Non-Toxic
Cc1ccc(NC(=O)[C@@H]2CCC(=O)N2c2ccccc2)cc1	Non-Toxic
CN1C(=O)CC[C@H]1C(=O)NCc1cc(C(F)(F)F)ccc1Cl	Non-Toxic
O=C(NCc1ccc(Cl)cc1Cl)[C@@H]1CCC(=O)N1Cc1ccc(Cl)cc1	Non-Toxic

The compounds below were run on M14 (assay: Cytotoxicity against human M14 cells assessed as effect on cell growth at 10 uM incubated for 48 hrs by sulforhodamine B assay). Details: m14, 48 h.
Format: cell-based

SMILES	Activity
O=C(NCc1ccc(Cl)cc1Cl)[C@@H]1CCC(=O)N1c1nccs1	Non-Toxic
Cc1ccc(NC(=O)[C@@H]2CCC(=O)N2c2ccccc2)cc1	Non-Toxic
CN1C(=O)CC[C@H]1C(=O)NCc1cc(C(F)(F)F)ccc1Cl	Non-Toxic
O=C(NCc1ccc(Cl)cc1Cl)[C@@H]1CCC(=O)N1Cc1ccc(Cl)cc1	Non-Toxic

What follows are compounds tested on OVCAR-5 (assay: Cytotoxicity against human OVCAR5 cells assessed as effect on cell growth at 10 uM incubated for 48 hrs by sulforhodamine B assay). Details: ovcar-5, 48 h.
Format: cell-based

SMILES	Activity
O=C(NCc1ccc(Cl)cc1Cl)[C@@H]1CCC(=O)N1c1nccs1	Non-Toxic
Cc1ccc(NC(=O)[C@@H]2CCC(=O)N2c2ccccc2)cc1	Non-Toxic
CN1C(=O)CC[C@H]1C(=O)NCc1cc(C(F)(F)F)ccc1Cl	Non-Toxic
O=C(NCc1ccc(Cl)cc1Cl)[C@@H]1CCC(=O)N1Cc1ccc(Cl)cc1	Non-Toxic

What follows are compounds tested on SK-OV-3 (assay: Cytotoxicity against human SKOV3 cells assessed as effect on cell growth at 10 uM incubated for 48 hrs by sulforhodamine B assay). Details: sk-ov-3, 48 h.
Format: cell-based

SMILES	Activity
O=C(NCc1ccc(Cl)cc1Cl)[C@@H]1CCC(=O)N1c1nccs1	Non-Toxic
Cc1ccc(NC(=O)[C@@H]2CCC(=O)N2c2ccccc2)cc1	Non-Toxic
CN1C(=O)CC[C@H]1C(=O)NCc1cc(C(F)(F)F)ccc1Cl	Non-Toxic
O=C(NCc1ccc(Cl)cc1Cl)[C@@H]1CCC(=O)N1Cc1ccc(Cl)cc1	Non-Toxic

These compounds were tested on 786-0 (assay: Cytotoxicity against human 786-0 cells assessed as effect on cell growth at 10 uM incubated for 48 hrs by sulforhodamine B assay). Details: 786-0, 48 h.
Format: cell-based

SMILES	Activity
O=C(NCc1ccc(Cl)cc1Cl)[C@@H]1CCC(=O)N1c1nccs1	Non-Toxic
Cc1ccc(NC(=O)[C@@H]2CCC(=O)N2c2ccccc2)cc1	Non-Toxic
CN1C(=O)CC[C@H]1C(=O)NCc1cc(C(F)(F)F)ccc1Cl	Non-Toxic
O=C(NCc1ccc(Cl)cc1Cl)[C@@H]1CCC(=O)N1Cc1ccc(Cl)cc1	Non-Toxic

The compounds below were run on A498 (assay: Cytotoxicity against human A498 cells assessed as effect on cell growth at 10 uM incubated for 48 hrs by sulforhodamine B assay). Details: a498, 48 h.
Format: cell-based

SMILES	Activity
O=C(NCc1ccc(Cl)cc1Cl)[C@@H]1CCC(=O)N1c1nccs1	Non-Toxic
Cc1ccc(NC(=O)[C@@H]2CCC(=O)N2c2ccccc2)cc1	Non-Toxic
CN1C(=O)CC[C@H]1C(=O)NCc1cc(C(F)(F)F)ccc1Cl	Non-Toxic
O=C(NCc1ccc(Cl)cc1Cl)[C@@H]1CCC(=O)N1Cc1ccc(Cl)cc1	Non-Toxic

The compounds below were run on ACHN (assay: Cytotoxicity against human ACHN cells assessed as effect on cell growth at 10 uM incubated for 48 hrs by sulforhodamine B assay). Details: not given.
Format: cell-based

SMILES	Activity
O=C(NCc1ccc(Cl)cc1Cl)[C@@H]1CCC(=O)N1c1nccs1	Non-Toxic
Cc1ccc(NC(=O)[C@@H]2CCC(=O)N2c2ccccc2)cc1	Non-Toxic
CN1C(=O)CC[C@H]1C(=O)NCc1cc(C(F)(F)F)ccc1Cl	Non-Toxic
O=C(NCc1ccc(Cl)cc1Cl)[C@@H]1CCC(=O)N1Cc1ccc(Cl)cc1	Non-Toxic

These compounds were tested on UO-31 (assay: Cytotoxicity against human UO31 cells assessed as effect on cell growth at 10 uM incubated for 48 hrs by sulforhodamine B assay). Details: uo-31, 48 h.
Format: cell-based

SMILES	Activity
O=C(NCc1ccc(Cl)cc1Cl)[C@@H]1CCC(=O)N1c1nccs1	Non-Toxic
Cc1ccc(NC(=O)[C@@H]2CCC(=O)N2c2ccccc2)cc1	Non-Toxic
CN1C(=O)CC[C@H]1C(=O)NCc1cc(C(F)(F)F)ccc1Cl	Non-Toxic
O=C(NCc1ccc(Cl)cc1Cl)[C@@H]1CCC(=O)N1Cc1ccc(Cl)cc1	Non-Toxic

What follows are compounds tested on DU-145 (assay: Cytotoxicity against human DU145 cells assessed as effect on cell growth at 10 uM incubated for 48 hrs by sulforhodamine B assay). Details: du-145, 48 h.
Format: cell-based

SMILES	Activity
O=C(NCc1ccc(Cl)cc1Cl)[C@@H]1CCC(=O)N1c1nccs1	Non-Toxic
Cc1ccc(NC(=O)[C@@H]2CCC(=O)N2c2ccccc2)cc1	Non-Toxic
CN1C(=O)CC[C@H]1C(=O)NCc1cc(C(F)(F)F)ccc1Cl	Non-Toxic
O=C(NCc1ccc(Cl)cc1Cl)[C@@H]1CCC(=O)N1Cc1ccc(Cl)cc1	Non-Toxic
